# Measurements published in ChEMBL document CHEMBL4382290, “Tetrahydroisoquinoline CXCR4 Antagonists Adopt a Hybrid Binding Mode within the Peptide Subpocket of the CXCR4 Receptor” (ACS Med Chem Lett, 2019).
# System: Human immunodeficiency virus 1
# Experiment: Antiviral activity against CXCR4 tropic HIV1 3B infected in human MAGI-CCR5/CXCR4 cells measured after 2 to 6 days by beta-galactosidase reporter gene assay
# Format: functional, organism-based
# Settings: Human immunodeficiency virus 1, 3B
row,SMILES,IC50 [nM]
1,NCCCCN(C[C@H]1NCCc2ccccc21)[C@H]1CCCc2cccnc21,450
2,NCCCCN(C[C@@H]1Cc2ccccc2CN1)[C@H]1CCCc2cccnc21,1400
3,NCCCCN(C[C@@H]1NCCc2ccccc21)[C@H]1CCCc2cccnc21,30000
4,NCCCCN(C[C@@H]1CCc2ccccc2N1)[C@H]1CCCc2cccnc21,30000
5,NCCCCN(C[C@H]1CCc2ccccc2N1)[C@H]1CCCc2cccnc21,250
6,NCCCCN(C[C@H]1Cc2ccccc2CN1)[C@H]1CCCc2cccnc21,5
7,Cc1ccc(-c2ccc3c(c2)C=C(C(=O)Nc2ccc(C[N+](C)(C)C4CCOCC4)cc2)CCC3)cc1,> 10000
8,NCCCCN(C[C@H]1CCCCN1)[C@H]1CCCc2cccnc21,1120
9,NCCCN(C[C@H]1Cc2ccccc2CN1)[C@H]1CCCc2cccnc21,380
10,NCCCCCN(C[C@H]1Cc2ccccc2CN1)[C@H]1CCCc2cccnc21,170
11,NCCN(C[C@H]1Cc2ccccc2CN1)[C@H]1CCCc2cccnc21,6200
12,NCCCCN(C[C@H]1Cc2ccccc2CN1)[C@H]1CCCc2ccccc21,1500
